Data published in US20230310624A1, “AFFIBODY-CYTOTOXIN CONJUGATE FOR ACTIVE TARGETED THERAPY OF TUMORS, NANOPARTICLE THEREOF, PREPARATION METHOD THEREOF AND APPLICATION THEREOF” (priority 2020, published 2023).
Where a SMILES comes first, the peptide text is derived from it. [ ]: non-standard residue; d: D form. The star is where a group is joined. Dolaproine = CO[C@@H]([C@@H]1CCCN1)[C@@H](C)C(=O)O; Dil = CC[C@H](C)[C@H](NC)[C@@H](CC(=O)O)OC; X1 = C[C@@H](N*)[C@@H](O)c1ccccc1; NMeV = CN[C@H](C(=O)O)C(C)C

Experiments:
SKOV-3 tumor [1] = assay: therapeutic effects on tumors of SKOV-3 tumor-bearing nude mice; type: in vivo
Procedure: A cell suspension of SKOV-3 cells in logarithmic growth phase is prepared at a concentration of 4.0><10^6 cells/mL, and inoculated subcutaneously into the right anterior axillary of nude mice, 200 μL per mouse; when the volume of tumor is around 100 mm^3, the mice are randomly selected into 4 groups, 5 in each group, which are respectively a PBS control group, a MMAE 0.6 mg/kg group, a ZHER2:342-MMAE nanoparticle group (the content of MMAE is 0.4 mg/kg), and a ZHER2:342-MMAE nanoparticle group (the content of MMAE is 0.6 mg/kg), wherein 200 μl PBS is injected for the PBS group, 0.6 mg/kg of MMAE is injected for the MMAE 0.6 mg/kg group, ZHER2:342-MMAE (containing 0.4 mg/kg MMAE) is injected for the ZHER2:342-MMAE group (containing 0.4 mg/kg MMAE), and ZHER2:342-MMAE (the content of MMAE is 0.6 mg/kg) is injected for the ZHER2:342-MMAE group (the content of MMAE is 0.6 mg/kg), once every 3 days. After each administration, the survival of tumor-bearing nude mice is observed, and the body weight and tumor size of the mice are measured and photographed for preservation.

[2] = in rats; cited from earlier work
SKOV-3 tumor [3] = assay: long-term cycle imaging in SKOV-3 tumor-bearing nude mice; type: in vivo
Procedure: A cell suspension of SKOV-3 cells in logarithmic growth phase is prepared at a concentration of 4.0×10^6 cells/mL, and inoculated subcutaneously into the right anterior axillary of nude mice, 200 μL per mouse; when the volume of tumor is around 500 mm^3, two mice are randomly selected as a control group and an experimental group. […] After 4 h and 12 h of injection, ZKKS-Mulaurora imaging system is used to take pictures and analyze the fluorescence intensity of the whole body of the mice.

CC[C@H](C)[C@@H]([C@@H](CC(=O)N1CCC[C@H]1[C@H](OC)[C@@H](C)C(=O)N[C@H](C)[C@@H](O)c1ccccc1)OC)N(C)C(=O)[C@@H](NC(=O)[C@@H](NC)C(C)C)C(C)C [MMAE, monomethyl auristatin E] (H-[NMeV]V[Dil][Dolaproine]-X1)
body weight of the mice (SKOV-3 tumor [1]; MMAE 0.6 mg/kg, after administration): drops sharply
survival of tumor-bearing nude mice (SKOV-3 tumor [1]; MMAE (content) 0.6 mg/kg, once every 3 days): all died

CC(=O)O[C@H]1C(=O)[C@@]2(C)[C@H]([C@H](OC(=O)c3ccccc3)[C@]3(O)C[C@H](OC(=O)[C@H](O)[C@@H](NC(=O)c4ccccc4)c4ccccc4)C(C)=C1C3(C)C)[C@]1(OC(C)=O)CO[C@@H]1C[C@@H]2O [paclitaxel]
blood half-life period [2]: 1.1 h

cyanine dye 5.5 [Cy5.5]
whole-body fluorescence distribution (SKOV-3 tumor [3]; after 4 hours of injection): no obvious presence in the mouse body
whole-body fluorescence distribution (SKOV-3 tumor [3]; after 12 hours): basically completely metabolized
